The supplement of paper PMC8149375

Legend:
Settings in all cases: treatment: drug + dasatinib (fixed dose, not stated); 5 days
769-P [1] = assay: GI50 of drug in presence of dasatinib; higher = less potent
Procedure: (§1)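 Primary HTS combination arm: 8 RCC cell lines treated with 8 doses (up to 10 uM) of each library drug plus a fixed dose of dasatinib (dose not stated) for 5 days; viability read by CellTiter-Glo and normalised to DMSO. GI50 was fitted with XLfit, AUC is the area under the dose-response curve, and minimum viability is the lowest fraction of DMSO viability across doses.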

786-O [2] = assay: as above
Procedure: as §1

A498 [3] = assay: as above
Procedure: as §1

ACHN [4] = assay: as above
Procedure: as §1

CAKI-1 [5] = assay: as above
Procedure: as §1

SN12C [6] = assay: as above
Procedure: as §1

TK-10 [7] = assay: as above
Procedure: as §1

UO-31 [8] = assay: as above
Procedure: as §1

769-P [9] = assay: minimum viability across doses, drug + dasatinib, relative to DMSO (fraction); higher = less growth inhibition
Procedure: as §1

786-O [10] = assay: as above
Procedure: as §1

A498 [11] = assay: as above
Procedure: as §1

ACHN [12] = assay: as above
Procedure: as §1

CAKI-1 [13] = assay: as above
Procedure: as §1

SN12C [14] = assay: as above
Procedure: as §1

TK-10 [15] = assay: as above
Procedure: as §1

UO-31 [16] = assay: as above
Procedure: as §1

769-P [17] = assay: AUC of dose-response viability curve, drug + dasatinib, normalised to DMSO (arbitrary (AUC of normalised viability)); higher = less growth inhibition
Procedure: as §1

786-O [18] = assay: as above
Procedure: as §1

A498 [19] = assay: as above
Procedure: as §1

ACHN [20] = assay: as above
Procedure: as §1

CAKI-1 [21] = assay: as above
Procedure: as §1

SN12C [22] = assay: as above
Procedure: as §1

TK-10 [23] = assay: as above
Procedure: as §1

UO-31 [24] = assay: as above
Procedure: as §1

Row | SMILES | GI50 of drug (786-O [2]) [µM] | GI50 of drug (ACHN [4]) [µM] | GI50 of drug (769-P [1]) [µM] | GI50 of drug (A498 [3]) [µM] | GI50 of drug (CAKI-1 [5]) [µM] | GI50 of drug (SN12C [6]) [µM] | GI50 of drug (TK-10 [7]) [µM] | GI50 of drug (UO-31 [8]) [µM] | minimum viability across doses (769-P [9]) | minimum viability across doses (786-O [10]) | minimum viability across doses (A498 [11]) | minimum viability across doses (ACHN [12]) | minimum viability across doses (CAKI-1 [13]) | minimum viability across doses (SN12C [14]) | minimum viability across doses (TK-10 [15]) | minimum viability across doses (UO-31 [16]) | AUC of dose-response viability curve (769-P [17]) | AUC of dose-response viability curve (786-O [18]) | AUC of dose-response viability curve (A498 [19]) | AUC of dose-response viability curve (ACHN [20]) | AUC of dose-response viability curve (CAKI-1 [21]) | AUC of dose-response viability curve (SN12C [22]) | AUC of dose-response viability curve (TK-10 [23]) | AUC of dose-response viability curve (UO-31 [24])
1 | CCn1cc(-c2ccnc3[nH]c(-c4cccc(CN(C)C)c4)cc23)c(-c2ccc(NC(=O)N(C)C)cc2)n1 + Cc1nc(Nc2ncc(C(=O)Nc3c(C)cccc3Cl)s2)cc(N2CCN(CCO)CC2)n1 [dasatinib] | 0.0284 | 0.0737 | 0.785 | 2.17 | 0.0969 | 0.128 | 0.635 | 2.87 | 0.0742 | 0.0106 | 0.131 | 0.00393 | 0.0134 | 0.00824 | 0.0524 | 0.0175 | 2.05 | 1.39 | 2.97 | 1.33 | 1.42 | 1.61 | 2.03 | 3.82
2 | COc1ccc2cc(-c3[nH]c(-c4ccc(S(C)=O)cc4)nc3-c3ccncc3)ccc2c1 (stereo unspecified) [Tie2 kinase inhibitor] + Cc1nc(Nc2ncc(C(=O)Nc3c(C)cccc3Cl)s2)cc(N2CCN(CCO)CC2)n1 [dasatinib] | 8.92 | > 10 | > 10 | > 10 | > 10 | > 10 | > 10 | > 10 | 0.595 | 0.468 | 0.97 | 0.521 | 0.657 | 0.64 | 0.68 | 1.07 | 2.36 | 2.51 | 3.88 | 2.03 | 2.41 | 2.4 | 2.69 | 4.56
3 | Cc1nc(NC(=O)N2CCC[C@H]2C(N)=O)sc1-c1csc(C(C)(C)C)n1 [A66] + Cc1nc(Nc2ncc(C(=O)Nc3c(C)cccc3Cl)s2)cc(N2CCN(CCO)CC2)n1 [dasatinib] | 0.323 | 1.13 | > 10 | > 10 | > 10 | > 10 | > 10 | > 10 | 0.548 | 0.352 | 0.784 | 0.429 | 0.539 | 0.527 | 0.561 | 0.761 | 2.43 | 1.88 | 3.64 | 2.1 | 2.31 | 2.33 | 2.49 | 3.38
4 | Cc1c(CN2CCN(C(=O)[C@H](C)O)CC2)sc2c(N3CCOCC3)nc(-c3cnc(N)nc3)nc12 [GDC-0980 (RG7422)] + Cc1nc(Nc2ncc(C(=O)Nc3c(C)cccc3Cl)s2)cc(N2CCN(CCO)CC2)n1 [dasatinib] | 0.0811 | 0.0255 | 0.0804 | 0.658 | 0.102 | 0.119 | 0.103 | 0.268 | 0.0451 | 0.00396 | 0.17 | 0.0521 | 0.02 | 0.0934 | 0.0374 | 0.00909 | 1.44 | 1.47 | 2.4 | 1.12 | 1.36 | 1.45 | 1.47 | 2.18
5 | CC(=O)c1c(C)c2cnc(Nc3ccc(N4CCNCC4)cn3)nc2n(C2CCCC2)c1=O.Cl + Cc1nc(Nc2ncc(C(=O)Nc3c(C)cccc3Cl)s2)cc(N2CCN(CCO)CC2)n1 [dasatinib] | 0.174 | 0.019 | 0.231 | > 10 | 0.179 | 1.19 | 0.523 | 1.53 | 0.0419 | 0.174 | 0.566 | 0.0923 | 0.0887 | 0.368 | 0.186 | 0.166 | 1.8 | 1.87 | 2.92 | 1.32 | 1.71 | 2.1 | 2.06 | 2.58
6 | Nc1cccc(-c2cc3c(Oc4cccc(O)c4)ncnc3[nH]2)c1 [TWS119] + Cc1nc(Nc2ncc(C(=O)Nc3c(C)cccc3Cl)s2)cc(N2CCN(CCO)CC2)n1 [dasatinib] | 3.57 | 0.287 | 0.798 | > 10 | 1.74 | 3.6 | 1.48 | 3.66 | 0.0643 | 0.288 | 0.653 | 0.126 | 0.07 | 0.25 | 0.0898 | 0.0374 | 1.93 | 2.39 | 3.56 | 1.62 | 2.11 | 2.33 | 2.34 | 3.25
7 | COc1ccc(-c2ccc3c(N4CCOCC4)nc(N4C[C@@H](C)O[C@@H](C)C4)nc3n2)cc1CO + Cc1nc(Nc2ncc(C(=O)Nc3c(C)cccc3Cl)s2)cc(N2CCN(CCO)CC2)n1 [dasatinib] | 0.478 | 0.0507 | 0.36 | 1.83 | 0.25 | 0.482 | 0.379 | 1.1 | 0.136 | 0.176 | 0.252 | 0.0839 | 0.0643 | 0.196 | 0.168 | 0.0195 | 1.75 | 1.93 | 2.77 | 1.33 | 1.56 | 2.03 | 1.87 | 2.56
8 | Cc1[nH]c(/C=C2\C(=O)Nc3ccc(S(=O)(=O)Cc4c(Cl)cccc4Cl)cc32)c(C)c1C(=O)N1CCC[C@@H]1CN1CCCC1 + Cc1nc(Nc2ncc(C(=O)Nc3c(C)cccc3Cl)s2)cc(N2CCN(CCO)CC2)n1 [dasatinib] | 3.3 | 1.06 | 2.3 | 2.1 | 2.16 | 4.24 | 4.11 | 3.1 | 0.00439 | 0.0107 | 0.0111 | 0.00119 | 0.00431 | 0.00449 | 0.00273 | 0.0078 | 2.14 | 2.38 | 2.71 | 1.93 | 2.04 | 2.19 | 2.73 | 2.84

More lines, main results first:

Row | GI50 of drug (786-O [2]) [µM] | GI50 of drug (ACHN [4]) [µM] | SMILES | GI50 of drug (769-P [1]) [µM] | GI50 of drug (A498 [3]) [µM] | GI50 of drug (CAKI-1 [5]) [µM] | GI50 of drug (SN12C [6]) [µM] | GI50 of drug (TK-10 [7]) [µM] | GI50 of drug (UO-31 [8]) [µM] | minimum viability across doses (769-P [9]) | minimum viability across doses (786-O [10]) | minimum viability across doses (A498 [11]) | minimum viability across doses (ACHN [12]) | minimum viability across doses (CAKI-1 [13]) | minimum viability across doses (SN12C [14]) | minimum viability across doses (TK-10 [15]) | minimum viability across doses (UO-31 [16]) | AUC of dose-response viability curve (769-P [17]) | AUC of dose-response viability curve (786-O [18]) | AUC of dose-response viability curve (A498 [19]) | AUC of dose-response viability curve (ACHN [20]) | AUC of dose-response viability curve (CAKI-1 [21]) | AUC of dose-response viability curve (SN12C [22]) | AUC of dose-response viability curve (TK-10 [23]) | AUC of dose-response viability curve (UO-31 [24])
9 | 0.641 | 0.398 | O=C(O)c1ccc(Nc2ncc3c(n2)-c2ccc(Cl)cc2C(c2c(F)cccc2F)=NC3)cc1 [MLN8054] + Cc1nc(Nc2ncc(C(=O)Nc3c(C)cccc3Cl)s2)cc(N2CCN(CCO)CC2)n1 [dasatinib] | 1.19 | 4.23 | 0.641 | 3.92 | > 10 | > 10 | 0.306 | 0.157 | 0.354 | 0.219 | 0.277 | 0.425 | 0.585 | 0.645 | 2.14 | 2.01 | 2.68 | 1.77 | 1.93 | 2.22 | 2.58 | 2.92
10 | > 10 | 0.449 | Oc1ccc(-c2nc(-c3ccc(F)cc3)c(-c3ccncc3)[nH]2)cc1 + Cc1nc(Nc2ncc(C(=O)Nc3c(C)cccc3Cl)s2)cc(N2CCN(CCO)CC2)n1 [dasatinib] | > 10 | > 10 | > 10 | > 10 | > 10 | > 10 | 0.56 | 0.609 | 0.909 | 0.279 | 0.555 | 0.652 | 0.634 | 0.768 | 2.27 | 2.57 | 3.53 | 1.74 | 2.52 | 2.45 | 2.53 | 3.66
11 | > 10 | 2.73 | Nc1nc(N)c2nc(-c3cccc(O)c3)c(-c3cccc(O)c3)nc2n1 [TG100-115] + Cc1nc(Nc2ncc(C(=O)Nc3c(C)cccc3Cl)s2)cc(N2CCN(CCO)CC2)n1 [dasatinib] | 6.88 | > 10 | 3.15 | > 10 | > 10 | > 10 | 0.463 | 0.681 | 0.882 | 0.368 | 0.308 | 0.637 | 0.739 | 1.03 | 2.32 | 2.76 | 3.23 | 2.04 | 2.12 | 2.52 | 2.71 | 3.95
12 | 0.213 | 0.456 | CCn1c(-c2nonc2N)nc2c(C#CC(C)(C)O)ncc(OC[C@H]3CCCNC3)c21 + Cc1nc(Nc2ncc(C(=O)Nc3c(C)cccc3Cl)s2)cc(N2CCN(CCO)CC2)n1 [dasatinib] | > 10 | > 10 | 2.67 | > 10 | 1.93 | > 10 | 0.627 | 0.189 | 0.802 | 0.274 | 0.305 | 0.66 | 0.421 | 0.642 | 2.43 | 1.74 | 3.07 | 1.8 | 2.29 | 2.45 | 2.22 | 2.8
13 | 0.025 | 0.00585 | NC(=O)Nc1cc(-c2cccc(F)c2)sc1C(=O)N[C@H]1CCCNC1 [AZD7762] + Cc1nc(Nc2ncc(C(=O)Nc3c(C)cccc3Cl)s2)cc(N2CCN(CCO)CC2)n1 [dasatinib] | 0.0524 | 0.261 | 0.0591 | 0.315 | 0.0596 | 0.0997 | 0.0473 | 0.00579 | 0.0562 | 0.0359 | 0.00368 | 0.00591 | 0.0198 | 0.0113 | 1.32 | 0.834 | 2.29 | 0.645 | 1.19 | 1.56 | 1.26 | 2.04
14 | 0.884 | 0.796 | N#CCNC(=O)c1ccc(-c2ccnc(Nc3ccc(N4CCOCC4)cc3)n2)cc1 [Cyt387] + Cc1nc(Nc2ncc(C(=O)Nc3c(C)cccc3Cl)s2)cc(N2CCN(CCO)CC2)n1 [dasatinib] | 2.11 | > 10 | 0.325 | 2.91 | 1.63 | 2.55 | 0.125 | 0.0246 | 0.897 | 0.0607 | 0.0305 | 0.271 | 0.0961 | 0.00938 | 2.24 | 1.73 | 3.6 | 1.72 | 1.83 | 2.27 | 2.14 | 2.78
